Common to all, as to type: cell-based
In assay [1] the test system is E-cadherin. Description: MG132 treatment of PANC-1 cells stably expressing shCTRL or shPAK4, western blot for E-cadherin (normalized by Vinculin). As to conditions: specific concentrations of MG132 for 24 hours. As to the method:
(§1) Experiment Method: PANC-1 cells were treated with 20 μg/mL cycloheximide (CHX), harvested at designated time points, and detected by western blot for E-cadherin, ZEB1, and Vinculin antibodies (left side of FIG. 5A). Quantitative evaluation of E-cadherin and ZEB1 protein levels was performed (normalized by Vinculin, right side of FIG. 5A). SU.86.86 and PANC-1 cells were cultured overnight in 1% P/S/10% FBS/DMEM, then converted to DMEM without Ca2+, and cultured for a specific time. E-cadherin, ZEB1, and Vinculin were detected by western blot (top side of FIG. 5B). E-cadherin and ZEB1 protein levels were quantitatively assessed (normalized by Vinculin, bottom side of FIG. 5B). PANC-1 cells stably expressing shCTRL or shPAK4 were treated with specific concentrations of MG132 for 24 hours and then detected by western blot for E-cadherin, ZEB1, and Vinculin antibodies (left side of FIG. 5C). E-cadherin and ZEB1 protein levels were quantitatively assessed (normalized by Vinculin, right side of FIG. 5C), After PANC-1 cells stably expressing shCTRL or shPAK4 were cultured in a serum-free medium for a certain period of time, activated Cdc42 and Rac1 interacting with GST-PBD-agarose were harvested from whole cell proteins. The activity of Cdc42 and Rac1 was detected by western blot (FIG. 5D). […]

The subject of assay [2] is E-cadherin. Description: Cycloheximide treatment of PANC-1 shCTRL/shPAK4 cells, western blot for E-cadherin (normalized by Vinculin). As to conditions: 20 μg/mL cycloheximide. How it is done:
as §1
(In western blotting, separated proteins are transferred to a membrane and probed.)

For assay [3], the system named is ZEB1. The experiment in a line: Cycloheximide treatment of PANC-1 shCTRL/shPAK4 cells, western blot for ZEB1 (normalized by Vinculin). As to conditions: 20 μg/mL cycloheximide. As to the method: as §1
The mark [4] stands for this setting: PANC-1 PAK4 knockdown (shPAK4) cells.
[5] abbreviates: PANC-1 shCTRL cells, harvested at designated time points.

Peptide text beside a SMILES is read from it. * marks the point of attachment. Cbz = O=C(OCc1ccccc1)*

Regarding `CC(C)C[C@@H](C=O)NC(=O)[C@H](CC(C)C)NC(=O)[C@H](CC(C)C)NC(=O)OCc1ccccc1` [MG132] (Cbz-Leu-Leu-Leu-aldehyde), the results for the “amount of protein of E-cadherin” value in assay [1] (setting [4]) and in assay [1] (PANC-1 shCTRL cells) were “such a pattern was not observed” and “decreased in a concentration-dependent manner”, respectively.
`C[C@@H]1C[C@@H]([C@H](O)CC2CC(=O)NC(=O)C2)C(=O)[C@@H](C)C1` [cyclohexamide, cycloheximide]: the E-cadherin expression result in assay [2] (setting [4]) is reported as “remained the same”. The E-cadherin production result in assay [2] (setting [5]) is given as “inhibited”. For the same compound, the ZEB1 expression entry in assay [3] (setting [4]) is listed as “significantly reduced”. Also, the ZEB1 production result in assay [3] (setting [5]) is “inhibited”.

Source of the values: patent US20260235580A1, “P21-ACTIVATED KINASE 4 INHIBITION AND E-CADHERIN […] AND SCREENING METHOD THEREFOR” (priority 2023, published 2026).
